Experimental data from US8378092B2, “Chlorothiophene-amides as inhibitors of coagulation factors Xa and thrombin” (Sanofi, priority 2008, dated 2013).
pIC50: −log10 of the molar value. Where a name gives a salt, the structure may show the parent alone.

How the values were obtained:
[1] = molecular target: T1, human coagulation factor Xa (Homo sapiens, UniProt P00742); test: Chromogenic F Xa inhibition assay (substrate S-2765); format: biochemical; details: purified human factor Xa, chromogenic substrate S-2765 62.5 μM, 37° C., mean of duplicates
T1 construct: purchased Enzyme Research Laboratories HFXa
T1 sequence (P00742 235-488 limits assumed): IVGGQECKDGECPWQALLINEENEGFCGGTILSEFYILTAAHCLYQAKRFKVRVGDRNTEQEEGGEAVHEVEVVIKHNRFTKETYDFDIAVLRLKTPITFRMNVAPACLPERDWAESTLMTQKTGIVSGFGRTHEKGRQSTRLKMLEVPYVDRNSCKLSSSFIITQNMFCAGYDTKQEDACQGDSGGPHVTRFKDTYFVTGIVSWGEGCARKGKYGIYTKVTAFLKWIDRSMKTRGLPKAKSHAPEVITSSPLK
T1 sequence (P00742 41-179 partner limits assumed): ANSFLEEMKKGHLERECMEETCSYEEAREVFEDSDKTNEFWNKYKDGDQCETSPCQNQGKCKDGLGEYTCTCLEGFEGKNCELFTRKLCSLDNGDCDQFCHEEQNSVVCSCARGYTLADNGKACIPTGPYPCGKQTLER

human thrombin = human thrombin (Homo sapiens, UniProt P00734); test: Chromogenic thrombin inhibition assay (substrate S-2238); format: biochemical; details: purified human thrombin, chromogenic substrate S-2238 83 μM, 37° C., mean of duplicates

CCc1c(N2CCOCC2=O)cccc1S(=O)(=O)N[C@@H](CNC(=O)c1csc(Cl)c1)C(=O)N1CCOC[C@@H]1C [Example 2, 5-Chloro-thiophene-3-carboxylic acid [(S)-2-[2-ethyl-3-(3-oxo-morpholin-4-yl)-benzenesulfonylamino]-3-((S)-3-methyl-morpholin-4-yl)-3-oxo-propyl]-amide]
pIC50 [1]: 8.01
pIC50 (human thrombin): 6.60

CCc1c(N2CCOCC2=O)cccc1S(=O)(=O)N[C@@H](CNC(=O)c1ccc(Cl)s1)C(=O)N1CCO[C@H](C)C1 [Example 3, 5-Chloro-thiophene-2-carboxylic acid [(S)-2-[2-ethyl-3-(3-oxo-morpholin-4-yl)-benzenesulfonylamino]-3-((R)-2-methyl-morpholin-4-yl)-3-oxo-propyl]-amide]
pIC50 [1]: 8.83
pIC50 (human thrombin): 7.26

CCc1c(N2CCOCC2=O)cccc1S(=O)(=O)N[C@@H](CNC(=O)c1ccc(Cl)s1)C(=O)N1CCC[C@@H](OC)C1 [Example 4, 5-Chloro-thiophene-2-carboxylic acid [(S)-2-[2-ethyl-3-(3-oxo-morpholin-4-yl)-benzenesulfonylamino]-3-((R)-3-methoxy-piperidin-1-yl)-3-oxo-propyl]-amide]
pIC50 [1]: 8.55
pIC50 (human thrombin): 7.21

O=C(NC[C@H](NS(=O)(=O)c1cccc(N2CCOCC2=O)c1Cl)C(=O)N1CCCCCC1)c1ccc(Cl)s1 [Example 5, 5-Chloro-thiophene-2-carboxylic acid {(S)-3-azepan-1-yl-2-[2-chloro-3-(3-oxo-morpholin-4-yl)-benzenesulfonylamino]-3-oxo-propyl}-amide]
pIC50 [1]: 8.01
pIC50 (human thrombin): 7.31

COc1c(N2CCOCC2=O)cc(F)cc1S(=O)(=O)N[C@@H](CNC(=O)c1ccc(Cl)s1)C(=O)N1CCCCCC1 [Example 6, 5-Chloro-thiophene-2-carboxylic acid {(S)-3-azepan-1-yl-2-[5-fluoro-2-methoxy-3-(3-oxo-morpholin-4-yl)-benzenesulfonylamino]-3-oxo-propyl}-amide]
pIC50 [1]: 9.06
pIC50 (human thrombin): 8.25

O=C(NC[C@H](NS(=O)(=O)c1cccc(N2CCCCC2=O)c1C(F)(F)F)C(=O)N1CCN(C2CC2)CC1)c1ccc(Cl)s1 [Example 7, 5-Chloro-thiophene-2-carboxylic acid {(S)-3-(4-cyclopropyl-piperazin-1-yl)-3-oxo-2-[3-(2-oxo-piperidin-1-yl)-2-trifluoromethyl-benzenesulfonylamino]propyl}amide trifluoroacetate]
pIC50 [1]: 8.99
pIC50 (human thrombin): 6.65

O=C(NC[C@H](NS(=O)(=O)c1cccc(N2CCCCC2=O)c1OC(F)F)C(=O)N1CCN(C2CC2)CC1)c1ccc(Cl)s1 [Example 8, 5-Chloro-thiophene-2-carboxylic acid {(S)-3-(4-cyclopropyl-piperazin-1-yl)-2-[2-difluoromethoxy-3-(2-oxo-piperidin-1-yl)-benzenesulfonylamino]-3-oxo-propyl}-amide trifluoroacetate]
pIC50 [1]: 9.01
pIC50 (human thrombin): 7.98

CCOC(=O)C1CCN(C(=O)[C@H](CNC(=O)c2ccc(Cl)s2)NS(=O)(=O)c2cccc(N3CCCCC3=O)c2OC(F)F)CC1 [Example 9, 1-{(S)-3-[(5-Chloro-thiophene-2-carbonyl)-amino]-2-[2-difluoromethoxy-3-(2-oxo-piperidin-1-yl)-benzenesulfonylamino]-propionyl}-piperidine-4-carboxylic acid ethyl ester]
pIC50 [1]: 9.28
pIC50 (human thrombin): 7.98

Cc1noc(C2CCN(C(=O)[C@H](CNC(=O)c3ccc(Cl)s3)NS(=O)(=O)c3cccc(N4CCCCC4=O)c3OC(F)F)CC2)n1 [Example 11, 5-Chloro-thiophene-2-carboxylic acid {(S)-2-[2-difluoromethoxy-3-(2-oxo-piperidin-1-yl)-benzenesulfonylamino]-3-[4-(3-methyl-[1,2,4]oxadiazol-5-yl)-piperidin-1-yl]-3-oxo-propyl}amide]
pIC50 [1]: 8.76
pIC50 (human thrombin): 6.42

CN1CCN(C(=O)[C@H](CNC(=O)c2ccc(Cl)s2)NS(=O)(=O)c2cc(F)cc(N3CCCC3)c2Cl)CC1 [Example 13, 5-Chloro-thiophene-2-carboxylic acid [(S)-2-(2-chloro-5-fluoro-3-pyrrolidin-1-yl-benzenesulfonylamino)-3-(4-methyl-piperazin-1-yl)-3-oxo-propyl]-amide trifluoro acetate]
pIC50 [1]: 8.84
pIC50 (human thrombin): 7.72

O=C(NC[C@H](NS(=O)(=O)c1cccc(N2CCCC2=O)c1Cl)C(=O)N1CCNCC1)c1ccc(Cl)s1 [Example 15, 5-Chloro-thiophene-2-carboxylic acid {(S)-2-[2-chloro-3-(2-oxo-pyrrolidin-1-yl)-benzenesulfonylamino]-3-oxo-3-piperazin-1-yl-propyl}-amide]
pIC50 [1]: 8.88
pIC50 (human thrombin): 6.18

COCCN1CCN(C(=O)[C@H](CNC(=O)c2ccc(Cl)s2)NS(=O)(=O)c2cc(F)cc(N3CCCC3=O)c2C)CC1 [Example 16, 5-Chloro-thiophene-2-carboxylic acid {(S)-2-[5-fluoro-2-methyl-3-(2-oxo-pyrrolidin-1-yl)-benzenesulfonylamino]-3-[4-(2-methoxy-ethyl)-piperazin-1-yl]-3-oxo-propyl}-amide trifluoro acetate]
pIC50 [1]: 8.89
pIC50 (human thrombin): 7.27

CN1CCN(C(=O)[C@H](CNC(=O)c2ccc(Cl)s2)NS(=O)(=O)c2cccc(N3CCCC3=O)c2C(F)F)CC1 [Example 17, 5-Chloro-thiophene-2-carboxylic acid [(S)-2-[2-difluoromethyl-3-(2-oxo-pyrrolidin-1-yl)-benzenesulfonylamino]-3-(4-methyl-piperazin-1-yl)-3-oxo-propyl]-amide trifluoro acetate]
pIC50 [1]: 8.74
pIC50 (human thrombin): 7.55

Cc1c(N2CCCC2=O)cccc1S(=O)(=O)N[C@@H](CNC(=O)c1ccc(Cl)s1)C(=O)N1CCc2sccc2C1 [Example 154, 5-Chloro-thiophene-2-carboxylic acid {(S)-3-(6,7-dihydro-4H-thieno[3,2-c]pyridin-5-yl)-2-[2-methyl-3-(2-oxo-pyrrolidin-1-yl)-benzenesulfonylamino]-3-oxo-propyl}-amide]
pIC50 [1]: 8.72
pIC50 (human thrombin): 8.46

O=C(NC[C@H](NS(=O)(=O)c1cc(F)cc(N2CCCCC2=O)c1Cl)C(=O)N1CCN(CC(F)(F)F)CC1)c1ccc(Cl)s1 [Example 183, 5-Chloro-thiophene-2-carboxylic acid {(S)-2-[2-chloro-5-fluoro-3-(2-oxo-piperidin-1-yl)-benzenesulfonylamino]-3-oxo-3-[4-(2,2,2-trifluoro-ethyl)-piperazin-1-yl]-propyl}-amide]
pIC50 [1]: 9.40
pIC50 (human thrombin): 7.40

Cc1c(N2CCCC2=O)cc(F)cc1S(=O)(=O)N[C@@H](CNC(=O)c1ccc(Cl)s1)C(=O)N1CCN(C)CC1 [Example 202, 5-Chloro-thiophene-2-carboxylic acid [(S)-2-[5-fluoro-2-methyl-3-(2-oxo-pyrrolidin-1-yl)-benzenesulfonylamino]-3-(4-methyl-piperazin-1-yl)-3-oxo-propyl]-amide]
pIC50 [1]: 8.88
pIC50 (human thrombin): 7.57
